# Data taken from US20240238246A1, “METHODS FOR PREVENTING OR SLOWING THE PROGRESSION OF COGNITIVE DECLINE OR IMPAIRMENT IN SUBJECTS” (AGENEBIO, INC., priority 2023, published 2024).
# Columns and labels:
# [1] = cited from earlier work
# [2] = tested on: entorhinal cortex (ERC) and Brodmann area 35 (BA35) volume in APOE-4 non-carriers; test: Volumetric MRI of medial temporal lobe subregions (ASHS-T1 segmentation) in the phase IIb study; assay type: in vivo, human; conditions: APOE-4 non-carriers (n=26), baseline to week 78
# Excerpt: Brain regions of interest were selected prior to the trial apriori based on the location of post-mortem tau accumulation in the early stage of AD (Braak et al., Acta Neuropathologica, 112(4): 389-404 (2006); Braak & Braak, Acta Neuropathologica, 80(5): 479-486 (1990)) and robust atrophy in entorhinal cortex volume in the AD. For this purpose, the Automated Segmentation of Hippocampal Subfields (ASHS) software (Xie et al., Hum Brain Mapp. 40:3431-3451 (2019)) was used. Regions provided by this software include the left and right entorhinal cortex (ERC), Brodmann area 35 (BA35), which largely overlaps with TEC (Braak et al., Acta Neuropathologica, 112(4): 389-404 (2006); Braak & Braak, Acta Neuropathologica, 80(5): 479-486 (1990))) and includes a portion of the perirhinal cortex and BA36, which predominantly encompasses the perirhinal cortex (Xie et al., 2019). High-resolution T1-weighted MRI images of the subjects' brain were collected at baseline and 78 weeks using an MRI scanner. Automatic segmentation was performed using the T1-weighted MRI images using the ASHS-T1 open-source software and see, also Xie et al., Hum Brain Mapp. 40:3431-3451 (2019). […] Volumetric and thickness measurements of the ERC and BA35 were extracted for each subject. […]
# [3] = tested on: subjects with MCI due to Alzheimer's disease; test: Phase IIb placebo-controlled 78-week study, Clinical Dementia Rating-Sum of Boxes (CDR-SB); assay type: in vivo, human
# Description: (§1) This example describes a phase IIb multicenter, randomized, double-blind, placebo-controlled study evaluating the efficacy and safety of a low-dose levetiracetam, 220 mg, extended-release tablet on slowing progression of MCI due to Alzheimer's disease (prodromal Alzheimer's disease), the results being evaluated using the well-recognized and accepted Clinical Dementia Rating-Sum of Boxes (CDR-SB) scores.
# (§2) Subjects for this study were between 55 and 85 years old (inclusive) in good general health, willing and able to consent and to participate for the duration of the study, having an eighth-grade education or good work history sufficient to exclude mental retardation, having visual and auditory acuity adequate for neuropsychological testing, and having proficient fluency of the native local language to participate in all the neuropsychological test assessments. The clinical assessments of 63 participants were used for the analyses.
# Blood samples were taken from each subject to determine APOE4 carrier status. Genomic DNA was prepared from the blood samples according to standard procedures. Quality of the genomic DNA samples were quantified using Optical Density and DNA purity was calculated. Using extracted genomic DNA as a template, locus specific DNA fragments were amplified by polymerase chain reaction (PCR). Purified PCR products were used as templates for sequencing reactions. According to the chain terminating methodology of Sanger et al (Sanger F, Nicklen S, Coulson A R. DNA sequencing with chain-terminating inhibitors. Proc Natl Acad Sci USA. 1977 December; 74(12):5463-7), analysis of DNA sequence was based on the termination of a growing DNA strand due to incorporation of a dye labeled ddNTP by the DNA polymerase. The resulting dye-labeled product was detected using an automated sequencing platform. Data was analyzed using the software SEQPATIENT from JSI-medical Systems®.
# (§3) The study included up to a 5-week screening period consisting of 3 visits and a 78-week treatment period consisting of 10 visits (1 baseline visit, 3 telephone call visits, and 6 clinic visits). The primary endpoint of the study was the analysis of the change in CDR-SB score from baseline to 78 weeks. Secondary endpoints included the analysis of the change in Functional Activities Questionnaire (FAQ) score from baseline to 78 weeks. Subjects received a low-dose levetiracetam, 220 mg, extended-release tablet or placebo in the morning in identically appearing extended release, one unit oral dosage forms.
# CDR-SB testing was performed using standard methods. Briefly, subjects were tested using the following six categories or “boxes”: Memory, Orientation, Judgment and Problem Solving, Community Affairs, Home and Hobbies, and Personal Care. CDR-SB scores were calculated by adding the box scores. The total score ranges from 0 to 18 with a higher scores indicating more impairment). Absolute values and changes from baseline in CDR-SB were summarized using descriptive statistics and presented by APOE4 non-carrier status. Table 3 summarizes the statistical analysis wherein each cell contains a point estimate followed by a 95% Confidence Interval (CI).
# [4] = tested on: subjects with MCI due to Alzheimer's disease; test: Phase IIb placebo-controlled 78-week study, Functional Activities Questionnaire (FAQ) score; assay type: in vivo, human
# Description: as §1, §2, §3
# FAQ scores were obtained to measure the functional ability of individuals over time. Briefly, FAQ measures instrumental activities of daily life, such as preparing meals and balancing a check book as these functional changes are found earlier in the dementia process compared to more basic activities. The Questionnaire comprises 10 questions which are answered using a 0-3 scoring system for each question with 0 being normal and 3 being dependent on someone else to complete the task. […]
# [5] = APOE-4 non-carrier subgroup (n=26)
structure (smiles),measurement,setting,value
"CC[C@@H](C(N)=O)N1CCCC1=O [levetiracetam, (2S)-2-(2-oxopyrrolidin-1-yl)butanamide]",Time of peak plasma concentrations,[1]; following oral administration,about 1 hour
same,Plasma half-life,[1]; in vivo,approximately 7±1 hour
same,Time to achieve steady state,[1]; multiple twice-daily dosing,2 days
same,Absorption after oral administration,[1]; oral administration,rapidly and almost completely absorbed
same,Effect of food on bioavailability,[1]; oral administration,not affected by food
same,Left ERC mean volume change,[2]; p=0.048 vs placebo,−1.878%
same,Right BA35 mean volume change,[2]; p=0.094 vs placebo,−0.789%
same,"CDR-SB Treatment Effect (Difference) versus placebo (point estimate, 95% CI)","[3]; APOE4 non-carriers (n = 63), 78 weeks","−0.56 (CI: −1.90, 0.47)"
same,"CDR-SB change score (point estimate, 95% CI)","[3]; APOE4 non-carriers (n = 63), baseline to 78 weeks, 220 mg extended-release tablet","0.96 (CI: 0.08, 2.01)"
same,Mean CDR-SB change score at Week 78,[3]; APOE-4 carrier subgroup (n=54),0.95
same,Estimated average treatment effect on CDR-SB change score,"[3]; APOE-4 carrier subgroup, Week 78, versus placebo",−0.10
same,Mean CDR-SB change from baseline at Week 78,[3]; [5],0.68
same,Estimated average treatment effect on CDR-SB change score,"[3]; APOE-4 non-carrier subgroup, Week 78, versus placebo",−0.45
same,Mean CDR-SB change score at Week 78,[3]; entire study population,1.12
same,Estimated average treatment effect on CDR-SB change score,"[3]; entire study population, Week 78, versus placebo (p=0.71)",−0.10
same,Mean FAQ total score change from baseline to week 78,[4]; APOE-4 carrier subgroup (n=54),5
same,Mean FAQ total score change from baseline to week 78,[4]; [5],1.8
same,Estimated mean FAQ score from baseline at 78 weeks (95% CI),[4]; entire study population,"3.82 (95% CI: 2.10, 5.17)"
